Source: patent US10214519B2, “Phosphatidylinositol 3-kinase inhibitors” (Gilead Sciences, Inc., priority 2016, dated 2019)

Target: PI3Kβ (Homo sapiens (Human), UniProt P42338)
Experiment: PI3K isoform TR-FRET enzymatic assay (PI3Kβ)
Type: biochemical
Details: 2× Km ATP, 30 minutes at 25° C.
In short: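 Heterodimeric recombinant PI3Kβ was incubated with compound 30 minutes at 25° C. Product was detected by TR-FRET competition with 10 nM labeled PIP3 for 35 nM Eu-GRP-1 PH domain after EDTA stop. Data were normalized to 1 μM wortmannin and DMSO, and IC50 was taken from a four-parameter fit.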

Sequence of PI3Kβ (P42338 whole entry, canonical isoform): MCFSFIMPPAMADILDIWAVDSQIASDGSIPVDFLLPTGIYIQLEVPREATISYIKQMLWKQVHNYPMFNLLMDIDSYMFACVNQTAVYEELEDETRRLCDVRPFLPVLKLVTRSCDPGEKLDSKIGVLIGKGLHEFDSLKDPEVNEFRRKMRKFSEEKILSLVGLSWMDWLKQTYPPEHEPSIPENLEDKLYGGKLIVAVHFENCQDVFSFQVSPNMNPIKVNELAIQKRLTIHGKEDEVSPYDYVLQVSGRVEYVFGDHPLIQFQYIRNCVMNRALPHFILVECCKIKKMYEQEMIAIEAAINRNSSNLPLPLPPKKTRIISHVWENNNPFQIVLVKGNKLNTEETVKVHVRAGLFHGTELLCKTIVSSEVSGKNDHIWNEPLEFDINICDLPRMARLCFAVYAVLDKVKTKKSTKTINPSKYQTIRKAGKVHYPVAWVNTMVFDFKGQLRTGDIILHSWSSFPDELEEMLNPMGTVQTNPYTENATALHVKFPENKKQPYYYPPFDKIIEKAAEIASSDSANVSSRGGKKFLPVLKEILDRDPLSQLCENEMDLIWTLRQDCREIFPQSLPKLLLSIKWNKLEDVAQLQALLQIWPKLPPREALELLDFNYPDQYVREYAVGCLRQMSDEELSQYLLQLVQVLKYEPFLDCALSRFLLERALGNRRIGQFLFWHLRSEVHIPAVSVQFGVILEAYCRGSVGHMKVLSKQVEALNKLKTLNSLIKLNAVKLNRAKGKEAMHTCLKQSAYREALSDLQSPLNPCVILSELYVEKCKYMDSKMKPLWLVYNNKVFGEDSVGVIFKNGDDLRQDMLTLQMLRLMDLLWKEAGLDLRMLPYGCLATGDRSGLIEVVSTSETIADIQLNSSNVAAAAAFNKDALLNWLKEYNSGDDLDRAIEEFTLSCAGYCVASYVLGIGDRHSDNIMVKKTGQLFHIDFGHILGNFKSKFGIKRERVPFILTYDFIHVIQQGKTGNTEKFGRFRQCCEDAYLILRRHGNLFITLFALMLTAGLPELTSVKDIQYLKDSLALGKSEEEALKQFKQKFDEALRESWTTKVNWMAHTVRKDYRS
Sequence of PI3Kβ (P27986 whole entry partner, canonical isoform): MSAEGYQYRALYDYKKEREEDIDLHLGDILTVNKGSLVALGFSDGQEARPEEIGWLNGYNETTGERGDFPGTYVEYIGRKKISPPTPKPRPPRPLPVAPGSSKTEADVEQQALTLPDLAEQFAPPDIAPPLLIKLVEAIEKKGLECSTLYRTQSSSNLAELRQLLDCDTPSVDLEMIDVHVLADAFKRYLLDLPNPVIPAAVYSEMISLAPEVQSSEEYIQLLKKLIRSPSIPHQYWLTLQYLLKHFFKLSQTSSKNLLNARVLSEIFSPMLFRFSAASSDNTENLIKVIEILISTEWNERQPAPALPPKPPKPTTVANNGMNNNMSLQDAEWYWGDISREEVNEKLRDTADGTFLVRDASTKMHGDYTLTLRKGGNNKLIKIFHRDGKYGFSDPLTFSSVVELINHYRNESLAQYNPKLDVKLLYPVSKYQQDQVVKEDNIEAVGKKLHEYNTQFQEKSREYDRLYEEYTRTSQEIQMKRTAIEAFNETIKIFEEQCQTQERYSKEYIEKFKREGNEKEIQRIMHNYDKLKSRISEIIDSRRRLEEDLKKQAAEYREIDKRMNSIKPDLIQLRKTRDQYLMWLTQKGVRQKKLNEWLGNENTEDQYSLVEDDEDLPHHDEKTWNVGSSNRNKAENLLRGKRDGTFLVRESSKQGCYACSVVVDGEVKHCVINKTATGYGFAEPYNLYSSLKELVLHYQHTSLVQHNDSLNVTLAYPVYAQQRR

SMILES	IC50
Cc1c(C2CC2)nc2ccccc2c1-n1c(C)nc2c(-c3nnc[nH]3)cc(N3CCOCC3)cc21 [Example 56, 4-[3-(2-cyclopropyl-3-methylquinolin-4-yl)-2-methyl-7-(4H-1,2,4-triazol-3-yl)benzimidazol-5-yl]morpholine]	72 nM
Cc1nc2c(-c3nnc[nH]3)cc(N3CCOCC3)cc2n1-c1cc(-c2nnc[nH]2)nc2ccccc12 [Example 57, 4-[2-methyl-7-(4H-1,2,4-triazol-3-yl)-3-[2-(4H-1,2,4-triazol-3-yl)quinolin-4-yl]benzimidazol-5-yl]morpholine]	55 nM
Cc1nc2c(-c3nnc[nH]3)cc(N3CCOCC3)cc2n1-c1cc(C(F)(F)F)nc2c(Cl)cccc12 [Example 58, 4-[3-[8-chloro-2-(trifluoromethyl)quinolin-4-yl]-2-methyl-7-(4H-1,2,4-triazol-3-yl)benzimidazol-5-yl]morpholine]	62 nM
Cc1nc2c(-c3nnc[nH]3)cc(N3CCOCC3)cc2n1-c1cc(-c2ccccc2)nc2ccccc12 [Example 59, 4-[2-methyl-3-(2-phenylquinolin-4-yl)-7-(4H-1,2,4-triazol-3-yl)benzimidazol-5-yl]morpholine]	130 nM
Cc1cc(-n2c(C)nc3c(-c4nnc[nH]4)cc(N4CCOCC4)cc32)c2cccc(C(F)(F)F)c2n1 [Example 60, 4-[2-methyl-3-[2-methyl-8-(trifluoromethyl)quinolin-4-yl]-7-(4H-1,2,4-triazol-3-yl)benzimidazol-5-yl]morpholine]	30 nM
Cc1cc(-n2c(C)nc3c(-c4nnc[nH]4)cc(N4CCOCC4)cc32)c2ccc(F)cc2n1 [Example 63, 4-[3-(7-fluoro-2-methylquinolin-4-yl)-2-methyl-7-(4H-1,2,4-triazol-3-yl)benzimidazol-5-yl]morpholine]	28 nM
Cc1nc2c(-c3nnc[nH]3)cc(N3CCOCC3)cc2n1-c1cc(C#N)nc2ccccc12 [Example 67, 4-[2-methyl-6-morpholin-4-yl-4-(4H-1,2,4-triazol-3-yl)benzimidazol-1-yl]quinoline-2-carbonitrile]	99 nM
Cc1nc2c(Cl)cccc2c(-n2c(C)nc3c(-c4nnc[nH]4)cc(N4CCOCC4)cc32)c1C [Example 70, 4-[3-(8-chloro-2,3-dimethylquinolin-4-yl)-2-methyl-7-(4H-1,2,4-triazol-3-yl)benzimidazol-5-yl]morpholine]	36 nM
Cc1cc(-n2c(C)nc3c(-c4nc(C)n[nH]4)cc(N4CCOCC4)cc32)c2ccccc2n1 [Example 73, 4-[2-methyl-3-(2-methylquinolin-4-yl)-7-(3-methyl-1H-1,2,4-triazol-5-yl)benzimidazol-5-yl]morpholine]	78 nM
Cc1n[nH]c(-c2cc(N3CCOCC3)cc3c2nc(C)n3-c2c(C)cnc3ccccc23)n1 [Example 74, 4-[2-methyl-3-(3-methylquinolin-4-yl)-7-(3-methyl-1H-1,2,4-triazol-5-yl)benzimidazol-5-yl]morpholine]	62 nM
CCc1c(C)nc2ccccc2c1-n1cnc2c(-c3nc(C)n[nH]3)cc(N3CCOCC3)cc21 [Example 75, 4-[3-(3-ethyl-2-methylquinolin-4-yl)-7-(3-methyl-1H-1,2,4-triazol-5-yl)benzimidazol-5-yl]morpholine]	29 nM
CCc1nc2ccccc2c(-n2c(C)nc3c(-c4nc(C)n[nH]4)cc(N4CCOCC4)cc32)c1C [Example 76, 4-[3-(2-ethyl-3-methylquinolin-4-yl)-2-methyl-7-(3-methyl-1H-1,2,4-triazol-5-yl)benzimidazol-5-yl]morpholine]	29 nM
Cc1cc(-n2c(C)nc3c(-c4nc(C)n[nH]4)cc(N4CCOCC4)cc32)c2cccc(C(F)(F)F)c2n1 [Example 77, 4-[2-methyl-7-(3-methyl-1H-1,2,4-triazol-5-yl)-3-[2-methyl-8-(trifluoromethyl)quinolin-4-yl]benzimidazol-5-yl]morpholine]	97 nM
Cc1n[nH]c(-c2cc(N3CCOCC3)cc3c2nc(C)n3-c2c(C)cnc3c(Cl)cccc23)n1 [Example 78, 4-[3-(8-chloro-3-methylquinolin-4-yl)-2-methyl-7-(3-methyl-1H-1,2,4-triazol-5-yl)benzimidazol-5-yl]morpholine]	27 nM
Cc1cc(-n2c(C)nc3c(-c4nc(C)n[nH]4)cc(N4CCOCC4)cc32)c2ccc(F)cc2n1 [Example 79, 4-[3-(7-fluoro-2-methylquinolin-4-yl)-2-methyl-7-(3-methyl-1H-1,2,4-triazol-5-yl)benzimidazol-5-yl]morpholine]	110 nM
CCc1nc2c(F)cccc2c(-n2c(C)nc3c(-c4nc(C)n[nH]4)cc(N4CCOCC4)cc32)c1C [Example 80, 4-[3-(2-ethyl-8-fluoro-3-methylquinolin-4-yl)-2-methyl-7-(3-methyl-1H-1,2,4-triazol-5-yl)benzimidazol-5-yl]morpholine]	61 nM
Cc1nc2c(-c3nnc[nH]3)cc(N3CCOCC3)cc2n1-c1ccnc2cccc(C(F)F)c12 [Example 85, 4-[3-[5-(difluoromethyl)quinolin-4-yl]-2-methyl-7-(4H-1,2,4-triazol-3-yl)benzimidazol-5-yl]morpholine]	280 nM

Next, values leading:

IC50	SMILES
14 nM	FC1(c2nc3c(-c4nnc[nH]4)cc(N4CCOCC4)cc3n2-c2ccnc3c(Cl)cccc23)CC1 [Example 54, 4-(1-(8-chloroquinolin-4-yl)-2-(1-fluorocyclopropyl)-4-(4H-1,2,4-triazol-3-yl)-1H-benzo[d]imidazol-6-yl)morpholine]
27 nM	CCc1nc2ccccc2c(-n2c(C)nc3c(-c4nnc[nH]4)cc(N4CCOCC4)cc32)c1C [Example 55, 4-[3-(2-ethyl-3-methylquinolin-4-yl)-2-methyl-7-(4H-1,2,4-triazol-3-yl)benzimidazol-5-yl]morpholine]
27 nM	Cc1nc2c(F)cccc2c(-n2c(C)nc3c(-c4nnc[nH]4)cc(N4CCOCC4)cc32)c1C [Example 61, 4-[3-(8-fluoro-2,3-dimethylquinolin-4-yl)-2-methyl-7-(4H-1,2,4-triazol-3-yl)benzimidazol-5-yl]morpholine]
23 nM	CCc1c(C)nc2ccccc2c1-n1c(C)nc2c(-c3nnc[nH]3)cc(N3CCOCC3)cc21 [Example 62, 4-[3-(3-ethyl-2-methylquinolin-4-yl)-2-methyl-7-(4H-1,2,4-triazol-3-yl)benzimidazol-5-yl]morpholine]
21 nM	Cc1cc(-n2c(C)nc3c(-c4nnc[nH]4)cc(N4CCOCC4)cc32)c2cccc(Cl)c2n1 [Example 64, 4-[3-(8-chloro-2-methylquinolin-4-yl)-2-methyl-7-(4H-1,2,4-triazol-3-yl)benzimidazol-5-yl]morpholine]
24 nM	Cc1cnc2ccccc2c1-n1c(C)nc2c(-c3nnc[nH]3)cc(N3CCOCC3)cc21 [Example 65, 4-[2-methyl-3-(3-methylquinolin-4-yl)-7-(4H-1,2,4-triazol-3-yl)benzimidazol-5-yl]morpholine]
16 nM	Cc1nc2c(-c3nnc[nH]3)cc(N3CCOCC3)cc2n1-c1c(C2CC2)cnc2ccccc12 [Example 66, 4-[3-(3-cyclopropylquinolin-4-yl)-2-methyl-7-(4H-1,2,4-triazol-3-yl)benzimidazol-5-yl]morpholine]
8 nM	Cc1cnc2c(Cl)cccc2c1-n1c(C)nc2c(-c3nnc[nH]3)cc(N3CCOCC3)cc21 [Example 68, 4-[3-(8-chloro-3-methylquinolin-4-yl)-2-methyl-7-(4H-1,2,4-triazol-3-yl)benzimidazol-5-yl]morpholine]
17 nM	Cc1cc(-n2c(C)nc3c(-c4nnc[nH]4)cc(N4CCOCC4)cc32)c2ccccc2n1 [Example 69, 4-[2-methyl-3-(2-methylquinolin-4-yl)-7-(4H-1,2,4-triazol-3-yl)benzimidazol-5-yl]morpholine]
23 nM	CCc1c(C)nc2ccccc2c1-n1cnc2c(-c3nnc[nH]3)cc(N3CCOCC3)cc21 [Example 71, 4-[3-(3-ethyl-2-methylquinolin-4-yl)-7-(4H-1,2,4-triazol-3-yl)benzimidazol-5-yl]morpholine]
25 nM	CCc1nc2ccccc2c(-n2cnc3c(-c4nnc[nH]4)cc(N4CCOCC4)cc32)c1C [Example 72, 4-[3-(2-ethyl-3-methylquinolin-4-yl)-7-(4H-1,2,4-triazol-3-yl)benzimidazol-5-yl]morpholine]
11 nM	Cc1nc2c(-c3nnc[nH]3)cc(N3CCOCC3)cc2n1-c1ccnc2cccc(F)c12 [Example 81, 4-[3-(5-fluoroquinolin-4-yl)-2-methyl-7-(4H-1,2,4-triazol-3-yl)benzimidazol-5-yl]morpholine]
9 nM	Cc1nc2c(-c3nnc[nH]3)cc(N3CCOCC3)cc2n1-c1ccnc2c(C(F)F)cccc12 [Example 82, 4-[3-[8-(difluoromethyl)quinolin-4-yl]-2-methyl-7-(4H-1,2,4-triazol-3-yl)benzimidazol-5-yl]morpholine]
19 nM	Cc1cccc2nccc(-n3c(C)nc4c(-c5nnc[nH]5)cc(N5CCOCC5)cc43)c12 [Example 83, 4-[2-methyl-3-(5-methylquinolin-4-yl)-7-(4H-1,2,4-triazol-3-yl)benzimidazol-5-yl]morpholine]
17 nM	Cc1nc2c(-c3nnc[nH]3)cc(N3CCOCC3)cc2n1-c1ccnc2cccc(Cl)c12 [Example 84, 4-[3-(5-chloroquinolin-4-yl)-2-methyl-7-(4H-1,2,4-triazol-3-yl)benzimidazol-5-yl]morpholine]
16 nM	Cc1nc2c(-c3nnc[nH]3)c(F)c(N3CCOCC3)cc2n1-c1ccnc2c(Cl)cccc12 [Example 86, 4-[3-(8-chloroquinolin-4-yl)-6-fluoro-2-methyl-7-(4H-1,2,4-triazol-3-yl)benzimidazol-5-yl]morpholine]
14 nM	Cc1nc2c(-c3nnc[nH]3)cc(N3CCOCC3)cc2n1-c1ccnc2c(Cl)ccc(F)c12 [Example 87, 4-[3-(8-chloro-5-fluoroquinolin-4-yl)-2-methyl-7-(4H-1,2,4-triazol-3-yl)benzimidazol-5-yl]morpholine]
